In patent US12157755B2, “CD73 inhibitor, preparation method therefor and application thereof” (Abbisko Therapeutics Co., Ltd., priority 2019, dated 2024):

Columns and labels:
CD73 = biological target: T1, CD73 (Homo sapiens, UniProt P21589); assay: In vitro enzymatic activity against CD73 (malachite green test using soluble CD73); format: biochemical; settings: soluble CD73 36 ng/mL, 50 μM AMP, 30 minutes at 25° C.
T1 construct: purchased R&D systems 5795-EN-010
T1 sequence (P21589 27-547 limits assumed): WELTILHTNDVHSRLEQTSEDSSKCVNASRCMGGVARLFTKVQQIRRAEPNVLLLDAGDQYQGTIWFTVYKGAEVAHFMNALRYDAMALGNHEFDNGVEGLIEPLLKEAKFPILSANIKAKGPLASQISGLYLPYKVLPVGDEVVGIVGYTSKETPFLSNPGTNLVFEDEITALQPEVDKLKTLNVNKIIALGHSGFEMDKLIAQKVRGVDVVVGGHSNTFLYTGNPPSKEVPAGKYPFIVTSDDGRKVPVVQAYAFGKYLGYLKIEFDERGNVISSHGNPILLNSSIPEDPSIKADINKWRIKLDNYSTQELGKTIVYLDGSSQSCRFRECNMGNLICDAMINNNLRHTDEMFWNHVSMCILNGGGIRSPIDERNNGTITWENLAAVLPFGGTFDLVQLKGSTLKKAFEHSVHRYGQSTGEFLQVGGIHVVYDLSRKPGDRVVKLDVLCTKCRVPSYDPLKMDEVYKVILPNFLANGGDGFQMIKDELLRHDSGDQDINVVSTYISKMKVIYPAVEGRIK
Description: The malachite green test using soluble CD73, which is synthesized in vitro was used in the present invention to determine the characteristics of inhibitory activity of the compounds against CD73. The specific experimental procedures were as following:
1. The enzyme reaction in this experiment was carried out in 384-well plates, and CD73 (R&D systems #5795-EN-010) at a concentration of 36 ng/mL, the compounds at different concentrations and 50 μM AMP were incubated for 30 minutes at 25° C. in a 40 uL reaction system (consisting of 25 mM Tris pH 7.5, 5 mM MgCl2, and 0.005% Tween-20);
2. Then, 10 μL of malachite green solution (Sigma) was added to each well to terminate the reaction;
3. The concentration of resulting inorganic phosphate was determined according to the instructions of the reagent manufacturer;
4. The enzymatic activity of CD73 was calculated based on the concentration of the product, and then IC50 values were determined by non-linear regression analysis of the inhibition percentage of the compounds of the present invention at different concentrations.

[1] = biological target: T2, CD73 enzymatic activity expressed on the cell surface of MDA-MB-231 cells (Homo sapiens, UniProt P21589); assay: Inhibition of CD73 enzymatic activity on the cell surface (Cell Titer Glo (CTG) experiment), MDA-MB-231 cells; format: cell-based; settings: MDA-MB-231 cells endogenously expressing CD73, AMP, 37° C. for 2 hours, CTG readout; read-out: Cellular activity IC50
T2 construct: Human breast cancer cells MDA-MB-231 that endogenously express CD73 were used; host or cells: MDA-MB-231
T2 sequence (P21589 27-549): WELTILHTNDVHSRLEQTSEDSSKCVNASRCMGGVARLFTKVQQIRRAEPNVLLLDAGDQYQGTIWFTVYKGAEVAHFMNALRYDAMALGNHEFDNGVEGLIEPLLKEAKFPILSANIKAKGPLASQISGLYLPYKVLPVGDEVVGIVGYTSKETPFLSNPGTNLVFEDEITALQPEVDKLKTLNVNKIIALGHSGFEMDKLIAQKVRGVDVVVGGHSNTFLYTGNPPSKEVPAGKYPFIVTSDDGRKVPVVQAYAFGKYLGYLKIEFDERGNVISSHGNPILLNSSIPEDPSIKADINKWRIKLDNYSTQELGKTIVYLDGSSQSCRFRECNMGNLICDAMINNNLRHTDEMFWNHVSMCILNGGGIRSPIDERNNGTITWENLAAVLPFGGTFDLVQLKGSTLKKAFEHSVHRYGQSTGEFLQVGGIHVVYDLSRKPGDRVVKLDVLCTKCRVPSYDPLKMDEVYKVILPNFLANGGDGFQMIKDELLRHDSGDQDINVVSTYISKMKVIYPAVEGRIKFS
Description: Human breast cancer cells MDA-MB-231 that endogenously express CD73 were used in the present invention to evaluate the inhibition of the compound against the CD73 enzymatic activity expressed on the cell surface. The cells used were from the Cell Bank of the Chinese Academy of Sciences. The specific experimental procedures were as follows:
1. Before the test, MDA-MB231 cells were seeded to a 96-well plate at 20000 cells/well;
2. In RPMI1640, 10% fetal bovine serum (Gibco, 10099-141), placed in a 5% CO2 incubator at 37° C. overnight (the cells were washed three times by using a serum-free RPMI medium right before the test):
3. 50 μl of serum-free media containing the compounds at different concentrations were added to the cells and incubated for 15 minutes;
4. 25 μL of 1.2 mM AMP was added for incubation at 37° C. for 2 hours, 25 μL of supernatant was then collected from the cells and mix with 25 μL of 100 μM ATP, and then the concentration of AMP in the samples was determined by CTG (Promega, #G7573);
5. Then, a reduction ratio of the substrate AMP level in the cell culture supernatant collected after the reaction was quantitatively determined to evaluate the inhibitory effects of the examples of the present invention and the positive compounds against the CD73 enzymatic activity on the cell surface;
6. Finally, the concentration of the compound leading to half maximal inhibition of enzymatic activity (IC50) was determined using a four-parameter non-linear logistic model curve fit in Graphpad Prism.

Row | SMILES | IC50 (CD73) | IC50 [1]
1 | O=P(O)(O)CP(=O)(O)OC[C@H]1C[C@@H](c2ccc3c(N[C@@H]4CCc5ccc(C(F)(F)F)cc54)nc(Cl)nn23)[C@H](O)[C@@H]1O [Example 36, (((((1R,2R,3S,4S)-4-(2-chloro-4-(((R)-6-(trifluoromethyl)-2,3-dihydro-1H-inden-1-yl)amino)pyrrolo[2,1-f][1,2,4]triazin-7-yl)-2,3-dihydroxycyclopentyl)methoxy)(hydroxy)phosphoryl)methyl)phosphonic acid] | 21.7 nM | 0.63 nM
2 | C[C@H](Nc1cc(Cl)nc2c1cnn2[C@@H]1O[C@H](COP(=O)(O)CP(=O)(O)O)[C@@H](O)[C@H]1O)c1ccc(S(F)(F)(F)(F)F)cc1F [Example 5, (((((2R,3S,4R,5R)-5-(6-chloro-4-(((S)-1-(2-fluoro-4-(pentafluoro-λ^6-sulfanyl)phenyl)ethyl)amino)-1H-pyrazolo[3,4-b]pyridin-1-yl)-3,4-dihydroxytetrahydrofuran-2-yl)methoxy)(hydroxy)phosphoryl)methyl)phosphonic acid] | 36.5 nM | 0.49 nM
3 | C[C@@H](Nc1cc(Cl)nc2c1cnn2[C@@H]1O[C@H](COP(=O)(O)CP(=O)(O)O)[C@@H](O)[C@H]1O)c1cccc(S(F)(F)(F)(F)F)c1 [Example 9, (((((2R,3S,4R,5R)-5-(6-chloro-4-(((R)-1-(3-(pentafluoro-λ^6-sulfanyl)phenyl)ethyl)amino)-1H-pyrazolo[3,4-b]pyridin-1-yl)-3,4-dihydroxytetrahydrofuran-2-yl)methoxy)(hydroxy)phosphoryl)methyl) phosphonic acid] | 4.8 nM | 1.45 nM
4 | O=P(O)(O)CP(=O)(O)OC[C@H]1C[C@@H](c2ccc3c(N[C@H]4CCc5cc(F)c(F)cc54)nc(Cl)nn23)[C@H](O)[C@@H]1O [Example 31, (((((1R,2R,3S,4S)-4-(2-chloro-4-(((S)-5,6-difluoro-2,3-dihydro-1H-inden-1-yl)amino)pyrrolo[2,1-f][1,2,4]triazin-7-yl)-2,3-dihydroxycyclopentyl)methoxy)(hydroxy)phosphoryl)methyl)phosphonic acid] | 48.6 nM | 0.95 nM
5 | C[C@H](Nc1nc(Cl)nc2c1cnn2[C@@H]1O[C@H](COP(=O)(O)CP(=O)(O)O)[C@@H](O)[C@H]1O)c1ccc(S(F)(F)(F)(F)F)cc1 [Example 2, (((((2R,3S,4R,5R)-5-(6-chloro-4-(((S)-1-(4-(pentafluoro-λ^6-sulfanyl)phenyl)ethyl)amino)-1H-pyrazolo[3,4-d]pyrimidin-1-yl)-3,4-dihydroxytetra-hydrofuran-2-yl)methoxy)(hydroxy)phosphoryl)methyl)phosphonic acid] | 20.6 nM | 0.73 nM
6 | O=P(O)(O)CP(=O)(O)OC[C@H]1C[C@@H](c2ccc3c(N[C@H]4CCc5cc(Cl)ccc54)nc(Cl)nn23)[C@H](O)[C@@H]1O [Example 37, (((((1R,2R,3S,4S)-4-(2-chloro-4-(((S)-5-chloro-2,3-dihydro-1H-inden-1-yl)amino)pyrrolo[2,1-f][1,2,4]triazin-7-yl)-2,3-dihydroxycyclopentyl)methoxy)(hydroxy)phosphoryl)methyl)phosphonic acid] | > 1000 nM | 60 nM
7 | Cc1cc(N[C@@H]2CCc3cc(F)cc(F)c32)c2cnn([C@@H]3O[C@H](COP(=O)(O)CP(=O)(O)O)[C@@H](O)[C@H]3O)c2n1 [Example 23, (((((2R,3S,4R,5R)-5-(4-(((R)-5,7-difluoro-2,3-dihydro-1H-inden-1-yl)amino)-6-methyl-1H-pyrazolo[3,4-b]pyridin-1-yl)-3,4-dihydroxytetrahydrofuran-2-yl)methoxy)(hydroxy)phosphoryl)methyl)phosphonic acid] | 0.89 nM | 0.245 nM
8 | O=P(O)(O)CP(=O)(O)OC[C@H]1O[C@@H](n2ncc3c(N[C@@H]4CCc5ccc(C(F)(F)F)cc54)cc(Cl)nc32)[C@H](O)[C@@H]1O [Example 20, (((((2R,3S,4R,5R)-5-(6-chloro-4-(((R)-6-(trifluoromethyl)-2,3-dihydro-1H-inden-1-yl)amino)-1H-pyrazolo[3,4-b]pyridin-1-yl)-3,4-dihydroxytetrahydrofuran-2-yl)methoxy)(hydroxy)phosphoryl)methyl)phosphonic acid] | 0.71 nM | 0.27 nM
9 | C[C@H](Nc1cc(Cl)nc2c1cnn2[C@@H]1O[C@H](COP(=O)(O)CP(=O)(O)O)[C@@H](O)[C@H]1O)c1cccc(S(F)(F)(F)(F)F)c1 [Example 8, (((((2R,3S,4R,5R)-5-(6-chloro-4-(((S)-1-(3-(pentafluoro-λ^6-sulfanyl)phenyl)ethyl)amino)-1H-pyrazolo[3,4-b]pyridin-1-yl)-3,4-dihydroxytetrahydrofuran-2-yl)methoxy)(hydroxy)phosphoryl)methyl) phosphonic acid] | 2 nM | 0.59 nM
10 | O=P(O)(O)CP(=O)(O)OC[C@H]1O[C@@H](n2ncc3c(N[C@@H]4CCc5cc(C(F)(F)F)ccc54)cc(Cl)nc32)[C@H](O)[C@@H]1O [Example 19, (((((2R,3S,4R,5R)-5-(6-chloro-4-(((R)-5-(trifluoromethyl)-2,3-dihydro-1H-inden-1-yl)amino)-1H-pyrazolo[3,4-b]pyridin-1-yl)-3,4-dihydroxytetrahydrofuran-2-yl)methoxy)(hydroxy)phosphoryl)methyl)phosphonic acid] | 11.8 nM | 0.54 nM
11 | O=P(O)(O)CP(=O)(O)OC[C@H]1O[C@@H](n2ncc3c(NCc4ccccc4S(F)(F)(F)(F)F)cc(Cl)nc32)[C@H](O)[C@@H]1O [Example 10, (((((2R,3S,4R,5R)-5-(6-chloro-4-((2-(pentafluoro-λ^6-sulfanyl)phenylmethyl)amino)-1H-pyrazolo[3,4-b]pyridin-1-yl)-3,4-dihydroxytetrahydrofuran-2-yl)methoxy)(hydroxy)phosphoryl)methyl) phosphonic acid] | 3.1 nM | 0.21 nM
12 | O=P(O)(O)CP(=O)(O)OC[C@H]1O[C@@H](n2ncc3c(N[C@@H]4CCc5ccccc54)cc(Cl)nc32)[C@H](O)[C@@H]1O [Example 13, (((((2R,3S,4R,5R)-5-(6-chloro-4-(((R)-2,3-dihydro-1H-inden-1-yl)amino)-1H-pyrazolo[3,4-b]pyridin-1-yl)-3,4-dihydroxytetrahydrofuran-2-yl)methoxy)(hydroxy)phosphoryl)methyl)phosphonic acid] | 0.42 nM | 0.13 nM
